Assay results reported in patent publication US7361633B2, “Screening method and anti-tumor drug candidate obtained therefrom” (Ardana Bioscience Limited, priority 2002, dated 2008).
Entries after “also recorded” stand apart in the source; their conditions may differ.

Key:
[1] = system: ERK1/2; experiment: ERK1/2 phosphorylation immunoblot in BPH-1 cells; format: cell-based, human; settings: for extent of ERK1/2 activation: FIG. 5 panel c
Excerpt: The panel depicts a representative anti-phospho-ERK1/2 w-c lysate immunoblot of stimulated BPH-1 cell extracts. […] Each bar of the histogram represents the mean±s.e. mean of three to four experimental replicates. […] Panel c) depicts the extent of ERK1/2 activation in BPH-1 cells induced by stimulation with GnRH I, II, Ant 135-25 and Ant 135-18. […] Each bar of the histogram represents the mean± s.e. mean of three to four experimental replicates.

[2] = system: JNK2; experiment: Phosphorylation of immunoprecipitated myc-JNK2 in JEG-3 cells; format: cell-based, human; settings: for activation (phosphorylation) of myc-JNK2: 100 nM; for effect of PTX pre-incubation on JNK phosphorylation: ligand 100 nM, PTX 16 h 200 ng/ml
Method: (§1) The activation of two other forms of mitogen-activated protein kinase (MAPK) was studied in JEG-3 and BPH-1 cells by overexpressing myc-tagged constructs of JNK2 or p38α. Immunoprecipitation of these constructs after GnRHR-ligand stimulation of either cell line allowed the degree of kinase activation to be assessed using antisera specific for the active, phosphorylated, form of the kinase. […] In both panel a and b, the dose of GnRH I employed was 100 nM. The respective histograms in each panel represent the mean±s.e. mean of three experimental replicate time courses.
The inset immunoblots depict the phosphorylation status of the immunoprecipitated JNK2 increasing while the level of total unphosphorylated protein (detected with α-JNK antisera) remains unchanged. The histogram below depicts the mean±s.e. mean of three experimental replicates of the above western blot. Stimulation of BPH-1 cells with the same range of ligands (Panel b) yields a similar pattern of MAPK activation, but in this case p38α. […] The inset immunoblots depict an increasing phosphorylation of p38α with no increase in total p38α protein. The histograin below depicts the mean±s.e. mean of three experimental replicates of the above western blot.
(§2) Stimulation of JNK in JEG-3 cells and p38 in BPH-1 cells and its sensitivity to pre-exposure to PTX was assessed by measuring the degree of activating phosphorylation of immunoprecipitated myc-JNK2 or myc-p38α. Panel a depicts a representative western blot of immunoprecipitated myc-JNK2 from JEG-3 cells stimulated with either GnRH I (100 nM) or Ant 135-25 (100 nM). The phosphorylation status of JNK was elevated by GnRH I and Ant135-25 with no significant alteration in total immunoprecipitated JNK levels (assessed by immunoblot with α-myc antisera). […] The histograms in panels b and c depict the mean±s.e. mean of three experimental replicates of the above western blot (panel a) experiments. Panel d depicts an identical experiment to that in panel a except that it is the phosphorylation status of immunoprecipitated myc-p38α that is being measured. […] The histograms in panels e and f depict the mean±s.e. mean of three experimental replicates of the above western blot (panel d) experiments.
Thus it appears that the ability of the GnRH-induced stimulation of either JEG-3 or BPH-1 cells is not correlated to their anti-proliferative action. […] Using specific antisera against the kinase active form of ERK5 (or BMK) we observed no specific activation of this form of MAPK however using antisera specifically recognising the active forms of either c-Jun N-terminal kinase (JNK) or p38 MAPK we noted that in JEG-3 cells there was a potent, yet delayed GnRH-induced activation of JNK and a similarly slow inset activation of p38 in the BPH-1 cells. The level of activation of the endogenous stress-activated protein kinases (SAPKs) was relatively small but greater than the GnRH-activated ERK levels in these cells. To further investigate the validity of the observed SAPK activation we transfected the tumour cell lines with myc-tagged JNK2 or p38α MAPK isoforms, stimulated the cells with GnRH and then immunoprecipitated with anti-myc sera and western blotted the immunoprecipitates for total JNK/p38 protein and active JNK/p38. In FIG. 7 (panel a) GnRH causes a demonstrable, time-dependent and protracted activation of the immunoprecipitated JNK2. Activation of JNK2 typically only occurred after 30 minutes of GnRH I stimulation. […] As with the activation of the JNK in the JEG-3 cells there was a considerable delay in the onset of the p38 activation unlike the ERK signalling events that typically occur and peak within 20 minutes of GnRH ligand application (FIG. 7, panel b).

[3] = system: p38α; experiment: Phosphorylation of immunoprecipitated myc-p38α in BPH-1 cells; format: cell-based, human; settings: for activation (phosphorylation) of myc-p38α / effect of PTX pre-exposure on p38α activation: BPH-1 cells; for activation (phosphorylation) of myc-p38α: 100 nM; for effect of PTX pre-exposure on p38α activation: PTX 16 h 200 ng/ml
Method: as §1
The histogram below depicts the mean±s.e. mean of three experimental replicates of the above western blot. […] The histograin below depicts the mean±s.e. mean of three experimental replicates of the above western blot.
as §2, with “myc-p38α.” for “myc-p38α. Panel a depicts a representative western blot of immunoprecipitated myc-JNK2 from JEG-3 cells stimulated with either GnRH I (100 nM) or Ant 135-25 (100 nM). The phosphorylation status of JNK was elevated by GnRH I and Ant135-25 with no significant alteration in total immunoprecipitated JNK levels (assessed by immunoblot with α-myc antisera).”
To further investigate the validity of the observed SAPK activation we transfected the tumour cell lines with myc-tagged JNK2 or p38α MAPK isoforms, stimulated the cells with GnRH and then immunoprecipitated with anti-myc sera and western blotted the immunoprecipitates for total JNK/p38 protein and active JNK/p38.

[4] = system: human JEG-3 choriocarcinoma cells; experiment: Anti-proliferative effect on JEG-3 cells, viable cell count after 5 days; format: cell-based; settings: 5 days continuous treatment, trypan blue exclusion
Method: Low cell density JEG-3 cell subcultures were treated for 5 days continuously with the indicated doses of GnRH I (a), GnRH II (b), antagonist 135-18 (c) or antagonist 135-25 (d) added directly to Dulbecco's modified Eagles medium supplemented with 10% FCS, glutamine and penicillin/streptomycin. Ligands were replenished every 24 h. At the end of the stimulation period cells were removed from the growth plates with trypsin and mixed with trypan blue dye (enters non-viable cells). Only viable cells were therefore counted using a haemocytometer in quadruplicate for each ligand dose. The bars in each histogram represent the mean±s.e. mean of n=4 experiments.
(§3) Each cell type was plated at an initial minimal confluency (10-20%) to allow for 5 days of normal continual cell growth that would not result in 100% cell confluency by day 5. Each ligand was incubated, in triplicate for every experimental concentration, with the cell monolayers for five days with replacement of the ligand every 12 h. At the end of the stimulation period the number of viable cells was estimated by their capacity to prevent uptake of Trypan Blue stain.

[5] = system: HEK293 cells stably expressing the Type I GnRHR (SCL60); experiment: Anti-proliferative effect on SCL60 cells, viable cell count after 5 days; format: cell-based, human; settings: 5 days continuous treatment, trypan blue exclusion
Method: An identical methodology of measuring cell growth was employed as in FIG. 1.
as §3
We further investigated the nature of the ligand-receptor specificity of the anti-proliferative effects of GnRH receptor systems by studying our ligand panel effects upon a model cell background, i.e. SCL60 HEK293 cells stably expressing the rat Type I GnRHR. […] We attribute this greater effect of the GnRHR ligands upon the SCL60 cells to the much greater level of receptor expression in the SCL60 cells.

Row | Compound | effect on GnRH-mediated ERK activation ([1]; 1 μM SB203580, data not shown) | effect on GnRH I stimulation of JNK ([2]; 20 μM SB203580, data not shown) | effect on GnRH-mediated activation of p38α [3] | anti-proliferative effect (viable cell number) [4] | anti-proliferative effect (viable cell number) [5] | anti-proliferative effect (viable cell number) ([5]; listed as Ant135-25) | extent of ERK1/2 activation [1] | activation (phosphorylation) of myc-JNK2 [2] | effect of PTX pre-incubation on JNK phosphorylation [2] | activation (phosphorylation) of myc-p38α [3] | effect of PTX pre-exposure on p38α activation [3] | anti-proliferative effect (viable cell number) ([4]; listed as Ant135-18) | anti-proliferative effect (viable cell number) ([5]; listed as Ant135-18) | extent of ERK1/2 activation ([1]; listed as Ant135-18) | activation (phosphorylation) of myc-JNK2 ([2]; listed as Ant135-18) | activation (phosphorylation) of myc-p38α ([3]; listed as Ant135-18) | ERK1/2 activation, dose dependence ([1]; FIG. 5 panel a) | time to onset of JNK2 activation [2]
1 | C[S+]([O-])c1ccc(-c2nc(-c3ccncc3)c(-c3ccc(F)cc3)[nH]2)cc1 (stereo not drawn) [SB203580] | no significant effect | effectively abrogates the ability of GnRH I to stimulate JNK | significantly blunted the GnRH-mediated activation of p38α | – | – | – | – | – | – | – | – | – | – | – | – | – | – | –
2 | Ac-D-Nal(2)-D-4-ClPhe-D-Pal-Ser-1-MePal-D-IsopropylLys-Leu-IsopropylLys-Pro-D-AlaNH2 [Ant 135-25] | – | – | – | clear dose-response relationships for the inhibition of cellular growth | greater anti-proliferative efficacy | nearly an as efficacious action as either GnRH I or GnRH II | A similar pattern to JEG-3 of ligand activation | can efficiently activate the myc-JNK2 construct | abolished with the PTX pre-incubation | effectively activate p38α | acutely sensitive to the pre-exposure of PTX | – | – | – | – | – | – | –
3 | Ac-D-Nal(2)-D-4-ClPhe-D-Pal-Ser-Ile-D-IsopropylLys-Leu-IsopropylLys-Pro-D -AlaNH2 [Ant 135-18] | – | – | – | much lower potency and efficacy compared to 135-25, GnRH I and II | low efficacy compared to the other ligands | – | A similar pattern to JEG-3 of ligand activation | fails to efficiently activate JNK | – | does not | – | failed to demonstrate an anti-proliferative effect of a similar magnitude to that generated by GnRH I, GnRH II or Ant135-25 | relatively ineffective at inhibiting the SCL60 cell proliferation | considerably less | dramatically lower efficacy than GnRH I or Ant 135-25 | dramatically lower efficacy than GnRH I or Ant 135-25 | – | –
4 | GnRH I: Gonadotropin-Releasing Hormone, a decapeptide; the original form of GnRH, re-named GnRH I | – | – | – | potent and dose-dependent anti-proliferative effect; also recorded: clear dose-response relationships for the inhibition of cellular growth | greater anti-proliferative efficacy; also recorded: dramatic reduction in the cells growth rate and significant loss of total cell number | – | A similar pattern to JEG-3 of ligand activation | significant activation of the immunoprecipitated myc-JNK2; also recorded: can efficiently activate the myc-JNK2 construct | abolished with the PTX pre-incubation | significant activation of myc-p38α; also recorded: effectively activate p38α; also recorded: protracted activation of the immunoprecipitated myc-p38α | acutely sensitive to the pre-exposure of PTX | – | – | – | – | – | strong and dose-dependent activation of ERK1/2 | > 30 min
